System: 3×Tg‐AD mice
Assay: behavioral tests (SDA, NOR, MWM), treatment study in 3×Tg-AD mice
Assay type: in vivo
Conditions: 3, 6, and 12 mg/kg, vs vehicle
Procedure: Triple transgenic 3×Tg‐AD mice were acquired from Jackson Laboratory and fostered in the Shenzhen Center for Disease Control and Prevention (Shenzhen, China). Eight‐month‐old 3×Tg‐AD mice were categorized into six groups: (1) 3×Tg‐AD +Vehicle group; (2) 3×Tg‐AD +MN‐08 (3 mg/kg) group; (3) 3×Tg‐AD +MN‐08 (6 mg/kg) group; (4) 3×Tg‐AD +MN‐08 (12 mg/kg) group; (5) 3×Tg‐AD +Memantine (Mem, 5 mg/kg) group; (6) 3×Tg‐AD +Donepezil (Done, 1.3 mg/kg, once daily) group; (7) Eight‐month‐old B6129SF2/J mice as a control group. MN‐08 and memantine were given twice daily (Done, once daily) by gastric gavage for 4 months from 8 months of age.
The step-down avoidance (SDA) test was performed as previously described (Zhou et al., 2019). During the training phase, mice were singly placed on a metal floor with electrical stimulation (35 V) for 5 min. After 24 hours, the mouse was positioned on a wooden platform, while the metal floor at the bottom delivered an electrical shock (35 V) for another 5 min. The time for the animal to step down from the wooden platform were recorded as the step-down latency to evaluate retention memory.
Hippocampus-dependent spatial memory was determined by the Morris water maze (MWM) test according to the protocol described in a previous study (Jiao et al., 2015). The MWM test includes a platform training phase and a probe trial phase. An escape platform was placed in a fixed spatial location. During the training phase, each animal was placed at one of four different starting positions and tested four times a day with an interval of approximately 30 min. The animal in the water was immediately removed when it swam to the escape platform within 60 s. […] After the training phase, the probe trial was performed on the sixth day when the platform was removed. The animal was placed in the same starting position in the pool and allowed to move freely for 2 min. The animal swimming track was recorded and analyzed with a digital camera.
The novel object recognition test was performed to assess non-spatial working memory according to previously published protocols (Choi et al., 2011). Firstly, each animal was sequentially placed into a square box (50 × 50 × 50 cm, length × width × height) without any objects for 10 min per day for 2 continuous days to habituate to the environment. Then, two identical objects were placed parallel near one wall of the square box. Animals were placed singly in the box and allowed to explore the objects for 10 min. […] The time each animal took to examine the familiar object and novel object was recorded by digital camera. The discrimination index was calculated according to the following expression: (novel object (s) - familiar object (s))/ (novel object (s) + familiar object (s)). […]

CCC12CC3CC(N)(C1)CC(CO[N+](=O)[O-])(C3)C2 (stereo not shown) [MN‐08]
step‐down latency (4 months from 8 months of age): significant increase
discrimination index (NOR) (4 months): significant increase
escape latency time (MWM) (4 months): significant reduction
number of crossings (MWM) (4 months): significant increase

From PMC8208785, “Therapeutic efficacy of novel memantine nitrate MN‐08 in animal models of Alzheimer’s disease” (Aging Cell, 2021)
